Source: patent US20250333371A1, “COMPOUNDS” (PSYLO PTY LTD, priority 2022, published 2025)
Several values for one entry are separate records, joined by “and”; a condition that tells them apart may be missing. Equal entries are not always repeated. Where two headings read alike, the source gives them in different places.

What was measured:
[1] = molecular target: T1, 5-HT2A (Homo sapiens, UniProt P28223); assay: FLIPR Ca2+ flux functional assay, 5-HT2A receptor (stably transfected HEK293); assay type: cell-based; conditions: agonist activity, Ca2+ flux, HEK293
T1 construct: host or cells: HEK293
T1 sequence (P28223 whole entry): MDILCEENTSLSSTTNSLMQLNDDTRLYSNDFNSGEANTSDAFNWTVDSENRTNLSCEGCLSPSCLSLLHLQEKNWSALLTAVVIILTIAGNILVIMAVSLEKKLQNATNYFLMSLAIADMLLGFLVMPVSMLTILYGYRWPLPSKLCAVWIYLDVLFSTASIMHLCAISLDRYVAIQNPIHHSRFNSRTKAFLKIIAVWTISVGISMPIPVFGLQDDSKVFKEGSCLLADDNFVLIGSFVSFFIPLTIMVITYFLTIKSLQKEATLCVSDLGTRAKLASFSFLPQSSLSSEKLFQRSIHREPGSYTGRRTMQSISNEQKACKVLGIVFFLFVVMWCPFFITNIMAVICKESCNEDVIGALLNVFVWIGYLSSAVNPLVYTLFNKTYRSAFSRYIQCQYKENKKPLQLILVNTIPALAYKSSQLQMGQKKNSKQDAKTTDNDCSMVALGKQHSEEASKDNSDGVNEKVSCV

[2] = molecular target: T2, 5-HT2C (Homo sapiens, UniProt P28335); assay: FLIPR Ca2+ flux functional assay, 5-HT2C receptor (stably transfected HEK293); assay type: cell-based; conditions: agonist activity, Ca2+ flux, HEK293
T2 construct: host or cells: HEK293
T2 sequence (P28335 33-458): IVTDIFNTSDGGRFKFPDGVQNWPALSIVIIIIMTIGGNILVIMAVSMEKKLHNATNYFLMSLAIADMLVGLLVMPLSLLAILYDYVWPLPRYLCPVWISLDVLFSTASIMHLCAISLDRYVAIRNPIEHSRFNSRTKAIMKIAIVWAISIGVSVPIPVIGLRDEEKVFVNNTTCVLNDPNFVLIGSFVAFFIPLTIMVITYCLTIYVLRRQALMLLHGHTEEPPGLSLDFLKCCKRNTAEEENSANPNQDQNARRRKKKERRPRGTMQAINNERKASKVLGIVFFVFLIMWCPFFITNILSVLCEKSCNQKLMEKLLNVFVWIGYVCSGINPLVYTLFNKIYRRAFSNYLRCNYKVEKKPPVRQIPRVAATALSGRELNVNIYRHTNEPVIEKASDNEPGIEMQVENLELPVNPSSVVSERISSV
Summary of the method: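 Stably transfected HEK293 (5-HT2A, 5-HT2C) or CHO-K1 (5-HT2B) cells loaded with Fluo-4 Direct and 2.5 mM final probenecid for 50 min at 37 °C. Compounds given as 10-point 3-fold dilutions; calcium fluorescence read on FLIPR Tetra after addition.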

[3] = In vivo pharmacokinetics: plasma and brain exposure after IP administration; set-up: species or system male C57BL/6 mice; conditions: for B:P Ratio Individual / Plasma Concentration (μM) Individual / concentration at 0.5 h / concentration at 0.083 h / concentration at 4 h / Kp at 0.083 h / Kp at 0.5 h / Kp at 4 h / Kp: 10 mg/kg; for Kp at 0.083 h / Kp at 0.5 h / Kp at 4 h / Kp: brain/plasma
Experimental: The study was conducted using established procedures in accordance with the Australian Code of Practice for the Care and Use of Animals for Scientific Purposes, and the study protocols were reviewed and approved by the Monash Institute of Pharmaceutical Sciences Animal Ethics Committee.
The systemic exposure of selected examples was studied in non-fasted male C57BL/6 mice weighing between 22.3-26.2 g. Mice had access to food and water ad libitum throughout the pre- and post-dose sampling period.
On the day of dosing, the formulation of each compound was prepared by dissolving solid compound in phosphate buffer saline (50 mM) using vortexing, creating colourless solutions (pH 6.1-6.3) for each compound.
Compounds were dosed to mice by IP injection (10 mL/kg dose volume via a 27G needle; n=9 mice per compound) and blood samples were collected at 5 and 30 min; 1, 2 and 4 h post-dose (n=3 mice per time point for each compound). A maximum of three blood samples were obtained from each mouse, with plasma samples being taken via submandibular bleed (approximately 120 μL). Once collected, blood samples were centrifuged immediately, supernatant plasma was removed, and stored at −80° C. until analysis by LCMS. In addition, at the 5 and 30 min and 4 h post-dose time points, the whole brain was rapidly removed from the carcass soon after the blood collection. The whole brains were blotted to remove excess blood, placed into pre-weighed polypropylene vials, and weighed. The brains were snap frozen in dry ice and subsequently stored frozen (−80° C.) until analysis.
Concentrations of test compound in plasma and tissue samples were determined using an LCMS/MS method validated for linearity, accuracy, precision, matrix factor and recovery (Table 2).
Test compound standard solutions were diluted from a concentrated stock solution (1 mg/mL in DMSO) using 50% acetonitrile in water (v/v) and a calibration curve was prepared in a matched matrix to the test samples.
Plasma: The plasma calibration curve was prepared by spiking aliquots of blank mouse plasma (25 μL) with test compound standard solutions (5 μL) and internal standard solution (5 μL of diazepam, 5 μg/mL in 50% acetonitrile in water). Test plasma samples (25 μL) were thawed, mixed, and then spiked with internal standard solution (5 μL). Plasma protein precipitation was performed by addition of acetonitrile (3-fold volume ratio) and thorough vortex mixing. Samples were centrifuged (RCF=9391×g) for 3 minutes and the supernatant (90 μL) was collected for analysis.
Tissue: Pre-weighed tissue samples (brain) were homogenised using a glass rod in buffer containing an EDTA/potassium fluoride solution (0.1 M/4 mg/mL) as a stabilisation cocktail to minimise the potential for ex vivo degradation (3 mL cocktail/g tissue). The tissue homogenate was briefly centrifuged (RCF=79×g) for 10 seconds to separate the foam layer before transferring an aliquot of the tissue homogenate (200 μL) to a fresh Eppendorf tube for sample extraction. Calibration standards were prepared by spiking blank brain homogenate (200 μL) with the solution standards (10 μL) and the internal standard (10 μL). Study samples were similarly prepared, except that acetonitrile (10 μL) was added instead of solution standards to maintain the same volume. Protein precipitation was carried out by the addition of a 3-fold volume of acetonitrile, followed by vortex mixing and centrifugation (RCF=9391×g) for 3 min to recover the supernatant for analysis.
Replicate analysis: Triplicate analytical replicate (ARs) samples were prepared similarly to the standards for each sample type at three concentrations (50, 500 and 2,000 ng/mL) and repeat injections of these ARs were included throughout the analytical run to assess assay performance. The extraction of the test compound from the standards and ARs were conducted as described above. […]

[4] = IP 10 mg/kg, 0.083 h, individual mice
[5] = IP 10 mg/kg, 0.5 h, individual mice
[6] = IP 10 mg/kg, 4 h, individual mice
[7] = male, C57BL/6, mouse, plasma, IP 10 mg/kg

Q: Which Emax [1] does the source give for `COc1ccc2cccc(CCN(C)C3CC3)c2c1` [Example I-15, N-(2-(7-methoxynaphthalen-1-yl)ethyl)-N-methylcyclopropanamine] here?
A: Its Emax is 70%.

Q: And the EC50 ([1]; read-out: 5-HT2A EC50)?
A: Its EC50 is 133 nM.

Q: What about the Emax [2] of the same molecule?
A: The Emax was 65%.

Q: And the EC50 ([2]; read-out: 5-HT2C EC50)?
A: The EC50 was 292 nM.

Q: And the “Brain AUC0-4 h” value ([3]; IP 10 mg/kg)?
A: The value was 13.8 µM·h.

Q: And the “B:P Ratio Individual” value [3, 4]?
A: The value was 6.9 and 6.7.

Q: What about the “Plasma Concentration (μM) Individual” value [3, 4] of the same molecule?
A: Its value is 1.38 µM and 1.48 µM.

Q: What about the concentration at 0.5 h ([3]; IP 10 mg/kg, 0.083 h, individual mice, read-out: Brain Parenchyma Concentration (μM) Individual) of the same molecule?
A: Its concentration at 0.5 h is 9.59 µM and 9.89 µM.

Q: And the “B:P Ratio Individual” value [3, 5]?
A: Its value is 8.2 and 8.1.

Q: What about the “Plasma Concentration (μM) Individual” value [3, 5] of the same molecule?
A: The value was 0.932 µM and 0.820 µM.

Q: What about the concentration at 0.5 h ([3]; IP 10 mg/kg, 0.5 h, individual mice, read-out: Brain Parenchyma Concentration (μM) Individual) of the same molecule?
A: The concentration at 0.5 h was 7.6 µM and 6.64 µM.

Q: And the “B:P Ratio Individual” value [3, 6]?
A: Its value is 9.3 and 7.5.

Q: What about the “Plasma Concentration (μM) Individual” value [3, 6] of the same molecule?
A: The value was 0.0701 µM and 0.151 µM and 0.101 µM.

Q: And the concentration at 0.5 h ([3]; IP 10 mg/kg, 4 h, individual mice, read-out: Brain Parenchyma Concentration (μM) Individual)?
A: Its concentration at 0.5 h is 0.553 µM and 1.41 µM and 0.755 µM.

Q: What about the concentration at 0.083 h ([3]; male, C57BL/6, mouse, brain, ip, 0.083 h, individual mice, read-out: Brain Parenchyma Concentration (μM) Individual) of the same molecule?
A: Its concentration at 0.083 h is 16.9 µM.

Q: And the concentration at 0.083 h ([3]; male, C57BL/6, mouse, brain, ip, 0.083 h, n = 3, read-out: Brain Parenchyma Concentration (μM) Mean ± SD)?
A: Its concentration at 0.083 h is 12.1 ± 4.14 µM.

Q: And the concentration at 0.5 h ([3]; male, C57BL/6, mouse, brain, ip, 0.5 h, individual mice, read-out: Brain Parenchyma Concentration (μM) Individual)?
A: The concentration at 0.5 h was 4.3 µM.

Q: What about the concentration at 0.5 h ([3]; male, C57BL/6, mouse, brain, ip, 0.5 h, n = 3, read-out: Brain Parenchyma Concentration (μM) Mean ± SD) of the same molecule?
A: Its concentration at 0.5 h is 6.18 ± 1.7 µM.

Q: And the concentration at 4 h ([3]; male, C57BL/6, mouse, brain, ip, 4 h, n = 3, read-out: Brain Parenchyma Concentration (μM) Mean ± SD)?
A: Its concentration at 4 h is 0.905 ± 0.446 µM.

Q: What about the Kp at 0.083 h ([3]; male, C57BL/6, mouse, ip, 0.083 h, individual mice, read-out: B:P Ratio Individual) of the same molecule?
A: Its Kp at 0.083 h is 7.3.

Q: And the Kp at 0.083 h ([3]; male, C57BL/6, mouse, ip, 0.083 h, n = 3, read-out: B:P Ratio Mean ± SD)?
A: Its Kp at 0.083 h is 7 ± 0.33.

Q: And the Kp at 0.5 h ([3]; male, C57BL/6, mouse, ip, 0.5 h, individual mice, read-out: B:P Ratio Individual)?
A: Its Kp at 0.5 h is 6.

Q: And the Kp at 0.5 h ([3]; male, C57BL/6, mouse, ip, 0.5 h, n = 3, read-out: B:P Ratio Mean ± SD)?
A: Its Kp at 0.5 h is 7.4 ± 1.2.

Q: And the Kp at 4 h ([3]; male, C57BL/6, mouse, ip, 4 h, individual mice, read-out: B:P Ratio Individual)?
A: Its Kp at 4 h is 7.9.

Q: What about the Kp at 4 h ([3]; male, C57BL/6, mouse, ip, 4 h, n = 3, read-out: B:P Ratio Mean ± SD) of the same molecule?
A: Its Kp at 4 h is 8.2 ± 1.

Q: And the Kp ([3]; male, C57BL/6, mouse, ip, (fu, brain * AUCbrain, 0-4 h)/(fu, plasma * AUCplasma, 0-4 h), read-out: (Unbound) time-averaged B:P)?
A: The Kp was 2.

Q: What about the Kp ([3]; male, C57BL/6, mouse, ip, AUCbrain, 0-4 h/AUCplasma, 0-4 h, read-out: (Total) time-averaged B:P) of the same molecule?
A: The Kp was 8.1.

Q: What about the concentration at 0.083 h ([3]; male, C57BL/6, mouse, plasma, ip, 0.083 h, individual mice, read-out: Plasma Concentration (μM) Individual) of the same molecule?
A: The concentration at 0.083 h was 2.3 µM.

Q: And the concentration at 0.083 h ([3]; male, C57BL/6, mouse, plasma, ip, 0.083 h, n = 3, read-out: Plasma Concentration (μM) Mean ± SD)?
A: The concentration at 0.083 h was 1.72 ± 0.506 µM.

Q: And the concentration at 0.5 h ([3]; male, C57BL/6, mouse, plasma, ip, 0.5 h, individual mice, read-out: Plasma Concentration (μM) Individual)?
A: Its concentration at 0.5 h is 0.718 µM.

Q: What about the concentration at 0.5 h ([3]; male, C57BL/6, mouse, plasma, ip, 0.5 h, n = 3, read-out: Plasma Concentration (μM) Mean ± SD) of the same molecule?
A: Its concentration at 0.5 h is 0.823 ± 0.107 µM.

Q: What about the concentration at 4 h ([3]; male, C57BL/6, mouse, plasma, ip, 4 h, n = 3, read-out: Plasma Concentration (μM) Mean ± SD) of the same molecule?
A: The concentration at 4 h was 0.107 ± 0.0406 µM.

Q: What about the Cmax [3, 7] of the same molecule?
A: The Cmax was 1720 nM.

Q: And the Tmax [3, 7]?
A: Its Tmax is 5 min.

Q: And the AUC(0-t) ([3]; male, C57BL/6, mouse, plasma, IP 10 mg/kg, read-out: Plasma AUC0-4 h)?
A: The AUC(0-t) was 1.71 µM·h.

Q: And the AUC(0-inf) ([3]; male, C57BL/6, mouse, plasma, IP 10 mg/kg, read-out: Plasma AUC0-inf)?
A: Its AUC(0-inf) is 1.9 µM·h.

Q: And the half-life ([3]; male, C57BL/6, mouse, IP 10 mg/kg, plasma, read-out: Apparent t1/2 (converted))?
A: Its half-life is 72 min.
